# From US10765114B2, “4-amino-6-(pyridyl and 2-substitutedphenyl)-picolinates and 6-amino-2-(pyridyl and 2-substitutedphenyl)-pyrimidine-4-carboxylates and their use as herbicides” (Dow AgroSciences LLC, priority 2013, dated 2020)
# Tested on: Key Grass and Sedge Weeds as well as Grass Crops
# Assay: Post-Emergent Test II (Table 6)
# Assay type: in vivo
# Conditions: post-emergence, 336 h, CYPSS, 140 g ai/ha, 14 days after application, read-out: Visual Growth Reduction (%) 14 Days After Application CYPSS
# Outline: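 Visual injury ratings (0 = no injury, 100 = complete kill) taken 14 days after treatment, relative to untreated controls. Compounds, in an acetone/DMSO aqueous carrier with crop oil and surfactant, were applied by track sprayer at 187 L/ha, in a twofold dilution series from the top rate, to plants at the first to second true-leaf stage.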
row,Compound,pest or weed control at 140 g/ha [%]
1,"COC(=O)c1nc(-c2ccc(Cl)c(F)c2C(F)F)cc(N)c1Cl [Compound 53, methyl 4-amino-3-chloro-6-(4-chloro-2-(difluoromethyl)-3-fluorophenyl)picolinate]",0 to 29

# Same assay, conditions: post-emergence, 336 h, DIGSA: crabgrass (Digitaria sanguinalis), 70 g ai/ha, 14 days after application, read-out: Visual Growth Reduction (%) 14 Days After Application DIGSA
row,Compound,pest or weed control at 70 g/ha [%]
1,"COC(=O)c1nc(-c2ccc(Cl)c(F)c2C(F)F)cc(N)c1Cl [Compound 53, methyl 4-amino-3-chloro-6-(4-chloro-2-(difluoromethyl)-3-fluorophenyl)picolinate]",0 to 29

# Same assay, conditions: post-emergence, 336 h, DIGSA: crabgrass (Digitaria sanguinalis), 140 g ai/ha, 14 days after application, read-out: Visual Growth Reduction (%) 14 Days After Application DIGSA
row,Compound,pest or weed control at 140 g/ha [%]
1,"COC(=O)c1nc(-c2ccc(Cl)c(F)c2C(F)F)cc(N)c1Cl [Compound 53, methyl 4-amino-3-chloro-6-(4-chloro-2-(difluoromethyl)-3-fluorophenyl)picolinate]",0 to 29

# Same assay, conditions: post-emergence, 336 h, ECHSS, 70 g ai/ha, 14 days after application, read-out: Visual Growth Reduction (%) 14 Days After Application ECHSS
row,Compound,pest or weed control at 70 g/ha [%]
1,"COC(=O)c1nc(-c2ccc(Cl)c(F)c2C(F)F)cc(N)c1Cl [Compound 53, methyl 4-amino-3-chloro-6-(4-chloro-2-(difluoromethyl)-3-fluorophenyl)picolinate]",0 to 29

# Same assay, conditions: post-emergence, 336 h, ECHSS, 140 g ai/ha, 14 days after application, read-out: Visual Growth Reduction (%) 14 Days After Application ECHSS
row,Compound,pest or weed control at 140 g/ha [%]
1,"COC(=O)c1nc(-c2ccc(Cl)c(F)c2C(F)F)cc(N)c1Cl [Compound 53, methyl 4-amino-3-chloro-6-(4-chloro-2-(difluoromethyl)-3-fluorophenyl)picolinate]",0 to 29

# Same assay, conditions: post-emergence, 336 h, ORYSS (crop), 70 g ai/ha, 14 days after application, read-out: Visual Growth Reduction (%) 14 Days After Application ORYSS
row,Compound,pest or weed control at 70 g/ha [%]
1,"COC(=O)c1nc(-c2ccc(Cl)c(F)c2C(F)F)cc(N)c1Cl [Compound 53, methyl 4-amino-3-chloro-6-(4-chloro-2-(difluoromethyl)-3-fluorophenyl)picolinate]",0 to 29

# Same assay, conditions: post-emergence, 336 h, ORYSS (crop), 140 g ai/ha, 14 days after application, read-out: Visual Growth Reduction (%) 14 Days After Application ORYSS
row,Compound,pest or weed control at 140 g/ha [%]
1,"COC(=O)c1nc(-c2ccc(Cl)c(F)c2C(F)F)cc(N)c1Cl [Compound 53, methyl 4-amino-3-chloro-6-(4-chloro-2-(difluoromethyl)-3-fluorophenyl)picolinate]",0 to 29

# Same assay, conditions: post-emergence, 336 h, SETFA: giant foxtail (Setaria faberi), 70 g ai/ha, 14 days after application, read-out: Visual Growth Reduction (%) 14 Days After Application SETFA
row,Compound,pest or weed control at 70 g/ha [%]
1,"COC(=O)c1nc(-c2ccc(Cl)c(F)c2C(F)F)cc(N)c1Cl [Compound 53, methyl 4-amino-3-chloro-6-(4-chloro-2-(difluoromethyl)-3-fluorophenyl)picolinate]",0 to 29

# Same assay, conditions: post-emergence, 336 h, SETFA: giant foxtail (Setaria faberi), 140 g ai/ha, 14 days after application, read-out: Visual Growth Reduction (%) 14 Days After Application SETFA
row,Compound,pest or weed control at 140 g/ha [%]
1,"COC(=O)c1nc(-c2ccc(Cl)c(F)c2C(F)F)cc(N)c1Cl [Compound 53, methyl 4-amino-3-chloro-6-(4-chloro-2-(difluoromethyl)-3-fluorophenyl)picolinate]",0 to 29

# Same assay, conditions: post-emergence, 336 h, SORVU: grain sorghum (Sorghum vulgare), 70 g ai/ha, 14 days after application, read-out: Visual Growth Reduction (%) 14 Days After Application SORVU
row,Compound,pest or weed control at 70 g/ha [%]
1,"COC(=O)c1nc(-c2ccc(Cl)c(F)c2C(F)F)cc(N)c1Cl [Compound 53, methyl 4-amino-3-chloro-6-(4-chloro-2-(difluoromethyl)-3-fluorophenyl)picolinate]",0 to 29

# Same assay, conditions: post-emergence, 336 h, SORVU: grain sorghum (Sorghum vulgare), 140 g ai/ha, 14 days after application, read-out: Visual Growth Reduction (%) 14 Days After Application SORVU
row,Compound,pest or weed control at 140 g/ha [%]
1,"COC(=O)c1nc(-c2ccc(Cl)c(F)c2C(F)F)cc(N)c1Cl [Compound 53, methyl 4-amino-3-chloro-6-(4-chloro-2-(difluoromethyl)-3-fluorophenyl)picolinate]",0 to 29

# Same assay, conditions: post-emergence, 336 h, TRZSS (crop), 70 g ai/ha, 14 days after application, read-out: Visual Growth Reduction (%) 14 Days After Application TRZSS
row,Compound,pest or weed control at 70 g/ha [%]
1,"COC(=O)c1nc(-c2ccc(Cl)c(F)c2C(F)F)cc(N)c1Cl [Compound 53, methyl 4-amino-3-chloro-6-(4-chloro-2-(difluoromethyl)-3-fluorophenyl)picolinate]",0 to 29

# Same assay, conditions: post-emergence, 336 h, TRZSS (crop), 140 g ai/ha, 14 days after application, read-out: Visual Growth Reduction (%) 14 Days After Application TRZSS
row,Compound,pest or weed control at 140 g/ha [%]
1,"COC(=O)c1nc(-c2ccc(Cl)c(F)c2C(F)F)cc(N)c1Cl [Compound 53, methyl 4-amino-3-chloro-6-(4-chloro-2-(difluoromethyl)-3-fluorophenyl)picolinate]",0 to 29

# Same assay, conditions: post-emergence, 336 h, ZEAMX: maize, corn (Zea mays), 70 g ai/ha, 14 days after application, read-out: Visual Growth Reduction (%) 14 Days After Application ZEAMX
row,Compound,pest or weed control at 70 g/ha [%]
1,"COC(=O)c1nc(-c2ccc(Cl)c(F)c2C(F)F)cc(N)c1Cl [Compound 53, methyl 4-amino-3-chloro-6-(4-chloro-2-(difluoromethyl)-3-fluorophenyl)picolinate]",0 to 29

# Same assay, conditions: post-emergence, 336 h, ZEAMX: maize, corn (Zea mays), 140 g ai/ha, 14 days after application, read-out: Visual Growth Reduction (%) 14 Days After Application ZEAMX
row,Compound,pest or weed control at 140 g/ha [%]
1,"COC(=O)c1nc(-c2ccc(Cl)c(F)c2C(F)F)cc(N)c1Cl [Compound 53, methyl 4-amino-3-chloro-6-(4-chloro-2-(difluoromethyl)-3-fluorophenyl)picolinate]",0 to 29
